From ChEMBL document CHEMBL5620431, “2,4-Diaryl-pyrimido[1,2-a]benzimidazole derivatives as novel anticancer agents endowed with potent anti-leukemia activity: Synthesis, biological evaluation and kinase profiling” (Eur J Med Chem, 2023)

What was measured:
[1] = molecular target: T1, Receptor-type tyrosine-protein kinase FLT3 (Homo sapiens, UniProt P36888); test: Inhibition of FLT3 (unknown origin)
T1 sequence (P36888 whole entry): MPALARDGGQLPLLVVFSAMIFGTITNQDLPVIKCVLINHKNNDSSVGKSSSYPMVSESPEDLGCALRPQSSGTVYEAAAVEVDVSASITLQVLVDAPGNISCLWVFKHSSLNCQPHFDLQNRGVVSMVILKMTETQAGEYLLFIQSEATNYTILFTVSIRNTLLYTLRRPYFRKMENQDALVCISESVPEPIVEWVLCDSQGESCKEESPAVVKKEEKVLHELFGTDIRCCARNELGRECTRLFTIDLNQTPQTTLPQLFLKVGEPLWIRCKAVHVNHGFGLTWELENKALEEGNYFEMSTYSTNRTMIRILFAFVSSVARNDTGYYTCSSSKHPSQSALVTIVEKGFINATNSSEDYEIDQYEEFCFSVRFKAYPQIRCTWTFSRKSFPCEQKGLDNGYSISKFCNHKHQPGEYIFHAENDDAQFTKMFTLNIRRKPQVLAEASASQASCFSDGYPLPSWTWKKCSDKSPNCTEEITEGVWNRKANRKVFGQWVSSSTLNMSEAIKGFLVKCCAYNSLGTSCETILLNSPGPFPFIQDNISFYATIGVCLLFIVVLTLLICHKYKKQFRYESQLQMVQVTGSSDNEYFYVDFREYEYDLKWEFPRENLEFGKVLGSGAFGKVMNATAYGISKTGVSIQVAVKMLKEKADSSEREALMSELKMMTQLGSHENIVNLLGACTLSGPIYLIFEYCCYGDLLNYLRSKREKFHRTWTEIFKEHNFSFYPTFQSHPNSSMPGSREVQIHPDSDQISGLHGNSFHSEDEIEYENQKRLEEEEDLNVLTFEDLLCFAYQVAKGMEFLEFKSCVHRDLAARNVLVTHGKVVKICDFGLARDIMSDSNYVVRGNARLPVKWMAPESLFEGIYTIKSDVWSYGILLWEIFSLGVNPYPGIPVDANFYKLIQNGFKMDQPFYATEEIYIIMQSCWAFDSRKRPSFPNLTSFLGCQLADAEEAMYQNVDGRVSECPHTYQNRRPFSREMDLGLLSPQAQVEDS

BaF3 = test: Antiproliferative activity against TEL-BMX transformed mouse BaF3 cells assessed as inhibition of cell proliferation
CCRF-CEM = test: Antiproliferative activity against human CCRF-CEM cells assessed as cell growth inhibition incubated for 48 hrs by MTT assay; format: functional

Row | Compound | IC50 [1] | other results
1 | Cc1oncc1C(=O)Nc1ccc2[nH]c(-c3cc(-n4ccnc4C)cc(C(F)(F)F)c3)nc2c1 | 495 nM | 
2 | Cc1oncc1C(=O)Nc1ccc2[nH]c(-c3cc(N4CCOCC4)cc(C(F)(F)F)c3)nc2c1 | 495 nM | 
3 | Cc1cn(-c2cc(-c3nc4cc(NC(=O)c5cnoc5C)ccc4[nH]3)cc(C(F)(F)F)c2)cn1 | 495 nM | 
4 | Cc1oncc1C(=O)Nc1ccc2[nH]c(-c3cnn(-c4ccccc4)c3C(F)(F)F)nc2c1 | 495 nM | 
5 | Cc1oncc1C(=O)Nc1ccc2[nH]c(-c3cc(-n4cncc4C)cc(C(F)(F)F)c3)nc2c1 | 495 nM | 
6 | C=CC(=O)Nc1cc(-n2c(=O)ccc3cnc4ccc(-c5ccc(NS(C)(=O)=O)cc5)cc4c32)ccc1C |  | IC50 (BaF3): 25 nM
7 | CCOC(=O)c1cnc2c(-c3nc4ccccc4s3)c(NC)nn2c1O |  | GI50 (CCRF-CEM): 16.3 µM
